Experimental data published in patent publication US20110190285A1 (priority 2008, published 2011).

Tests used:
botulinum (serotype-A) = botulinum (serotype-A) (Clostridium botulinum, UniProt P0DPI1); test: cell-based; conditions: for inhibition at 30 µM: read-out: Cell Biology (% inhibition at 30 uM); for IC50: read-out: Cell Biology IC50
[1] = biological target: botulinum toxin recombinant light chain (Clostridium botulinum, UniProt P0DPI0); test: biochemical
Chain of botulinum toxin recombinant light chain (P0DPI0 2-448 limits assumed): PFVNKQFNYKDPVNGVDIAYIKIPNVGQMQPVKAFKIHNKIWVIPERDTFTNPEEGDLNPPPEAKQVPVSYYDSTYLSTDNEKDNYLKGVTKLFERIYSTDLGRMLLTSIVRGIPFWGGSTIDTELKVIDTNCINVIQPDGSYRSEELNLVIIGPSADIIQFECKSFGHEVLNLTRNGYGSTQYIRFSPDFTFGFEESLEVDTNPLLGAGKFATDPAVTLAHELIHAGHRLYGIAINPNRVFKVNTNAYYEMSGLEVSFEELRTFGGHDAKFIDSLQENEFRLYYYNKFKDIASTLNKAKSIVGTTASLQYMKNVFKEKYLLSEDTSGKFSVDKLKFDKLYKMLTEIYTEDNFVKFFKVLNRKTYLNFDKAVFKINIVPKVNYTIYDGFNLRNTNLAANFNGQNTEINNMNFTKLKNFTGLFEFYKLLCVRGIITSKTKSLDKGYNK

Chain of botulinum (serotype-A) (P0DPI1 2-1296 limits assumed): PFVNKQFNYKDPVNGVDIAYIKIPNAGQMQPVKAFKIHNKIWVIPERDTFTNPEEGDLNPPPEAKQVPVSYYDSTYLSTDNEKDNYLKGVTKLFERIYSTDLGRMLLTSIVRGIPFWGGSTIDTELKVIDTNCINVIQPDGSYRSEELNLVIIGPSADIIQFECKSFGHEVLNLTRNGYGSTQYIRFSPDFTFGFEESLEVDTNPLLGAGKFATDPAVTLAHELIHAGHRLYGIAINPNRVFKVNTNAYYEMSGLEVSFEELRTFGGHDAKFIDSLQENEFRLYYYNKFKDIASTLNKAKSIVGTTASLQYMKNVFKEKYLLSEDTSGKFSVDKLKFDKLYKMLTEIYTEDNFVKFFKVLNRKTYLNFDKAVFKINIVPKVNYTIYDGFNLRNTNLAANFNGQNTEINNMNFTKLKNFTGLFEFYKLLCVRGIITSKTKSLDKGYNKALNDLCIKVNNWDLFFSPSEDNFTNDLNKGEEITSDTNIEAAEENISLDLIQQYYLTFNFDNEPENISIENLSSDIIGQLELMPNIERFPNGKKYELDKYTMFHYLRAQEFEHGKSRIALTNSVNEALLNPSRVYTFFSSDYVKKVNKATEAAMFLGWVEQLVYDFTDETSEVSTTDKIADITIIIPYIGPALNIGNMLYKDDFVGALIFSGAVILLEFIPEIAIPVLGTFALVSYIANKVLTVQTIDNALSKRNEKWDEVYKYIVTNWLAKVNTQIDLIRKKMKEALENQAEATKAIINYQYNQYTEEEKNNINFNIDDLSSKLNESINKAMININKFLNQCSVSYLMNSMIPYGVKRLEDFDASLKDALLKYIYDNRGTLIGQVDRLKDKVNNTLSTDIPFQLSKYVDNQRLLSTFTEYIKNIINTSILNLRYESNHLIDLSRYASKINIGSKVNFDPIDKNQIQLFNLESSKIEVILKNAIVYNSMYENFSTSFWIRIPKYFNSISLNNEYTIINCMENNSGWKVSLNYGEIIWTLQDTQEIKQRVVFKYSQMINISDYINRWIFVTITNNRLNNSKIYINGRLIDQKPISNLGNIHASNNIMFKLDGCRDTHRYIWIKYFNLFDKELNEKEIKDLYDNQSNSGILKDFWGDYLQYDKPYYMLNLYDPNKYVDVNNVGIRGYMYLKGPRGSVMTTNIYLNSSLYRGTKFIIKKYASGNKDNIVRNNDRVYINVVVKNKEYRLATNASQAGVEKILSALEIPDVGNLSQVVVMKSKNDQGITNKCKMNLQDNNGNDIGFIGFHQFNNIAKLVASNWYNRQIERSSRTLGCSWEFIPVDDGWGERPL

Row | Compound | inhibition at 30 µM (botulinum (serotype-A)) [%] | IC50 [1] [µM] | IC50 (botulinum (serotype-A)) [µM]
1 | O=C(CS)Nc1cc(-c2ccc(F)cc2)n[nH]1 | 73 to 78 |  | 
2 | C[C@@H](NC(=O)CS)c1ccc2ccccc2c1 |  | 8 to 21 | 
3 | CC(NC(=O)CS)c1ccc(Cl)cc1Cl (stereo not drawn) [drawing 69] |  |  | 18
4 | O=C(CS)Nc1cc(-c2ccc(Cl)cc2)n[nH]1 | 57 to 100 |  | 10 to 19
5 | O=C(CS)Nc1ccc2c(c1)Cc1cc(Br)ccc1-2 | 90 |  | 
6 | Cc1ccc(NC(=O)CS)cc1C#N | 77 |  | 
7 | CC(NC(=O)CS)c1ccc(Cl)cc1Cl (stereo not drawn) [drawing 65] |  | 5 to 27 | 
8 | CCOC(=O)Cc1csc(NC(=O)CS)n1 | 86 |  | 
